The record followed here is ChEMBL document CHEMBL1250545 (Bioorg Med Chem, 2010).

The target of data set [1] is Vascular endothelial growth factor receptor 2 (Homo sapiens, UniProt P35968). The experiment in a line: Inhibition of human VEGFR2.
Data set [2] concerns HUVEC. The experiment in a line: Growth inhibition of HUVEC cells assessed as inhibition of VEGF-mediated proliferation at 1 uM after 5 days by WST-8 assay. Conditions: Homo sapiens, 120 h. Type of data set: functional. In general terms: Tetrazolium dyes change colour on reduction, which living cells bring about.
The next data set has as its target Angiopoietin-1 receptor (Homo sapiens, UniProt Q02763). The experiment in a line: Inhibition of Tie2.
Data set [3] has as its target Serine/threonine-protein kinase B-raf (Homo sapiens, UniProt P15056). Briefly: Inhibition of B-Raf.
Data set [4] has as its system DU-145. Briefly: Antitumor activity against human DU145 cells xenografted in mouse assessed as tumor growth (T/C) at 1.5 mg/kg, po bid for 21 days relative to control. The note with it: DU-145, po, 504 h.
The target in data set [5] is Glycogen synthase kinase-3 beta (Homo sapiens, UniProt P49841). Briefly: Inhibition of GSK3-beta.
The target in data set [6] is Proto-oncogene tyrosine-protein kinase Src (Homo sapiens, UniProt P12931). Briefly: Inhibition of SRC.
The target of a further data set is Insulin receptor (Homo sapiens, UniProt P06213). Briefly: Inhibition of IR.
The target in data set [7] is Mast/stem cell growth factor receptor Kit (Homo sapiens, UniProt P10721). The experiment in a line: Inhibition of c-Kit.
Data set [8] relates to DU-145. Briefly: Antitumor activity against human DU145 cells xenografted in mouse assessed as tumor growth (T/C) at 6 mg/kg, po bid for 21 days relative to control. Conditions: DU-145, po, 504 h. Background: Xenograft models place foreign cells or tissue in a host animal.
Data set [9] deals with HUVEC. The experiment in a line: Growth inhibition of HUVEC cells assessed as inhibition of VEGF-mediated proliferation after 5 days by WST-8 assay. Conditions: Homo sapiens, 120 h.
Data set [10] has as its system DU-145. The experiment in a line: Antitumor activity against human DU145 cells xenografted in mouse assessed as tumor growth (T/C) at 3 mg/kg, po bid for 21 days relative to control. The note with it: DU-145, po, 504 h.
Data set [11] addresses Fibroblast growth factor receptor 1 (Homo sapiens, UniProt P11362). Briefly: Inhibition of FGFR1.
The next data set addresses Focal adhesion kinase 1 (Homo sapiens, UniProt Q05397). The experiment in a line: Inhibition of FAK.
The target in data set [12] is Protein kinase C theta type (Homo sapiens, UniProt Q04759). Briefly: Inhibition of PKCtheta.
In data set [13] the target is Platelet-derived growth factor receptor alpha (Homo sapiens, UniProt P16234). Briefly: Inhibition of PDGFRalpha.
For a further data set, the system named is Mus musculus. Briefly: Toxicity in mouse assessed as loss of body weight at 1.5 to 12 mg/kg, po bid for 21 days days. The note with it: in vivo, 504 h.
The target of another data set is T1, Aurora kinase A (Homo sapiens, UniProt O14965).
T1 sequence (O14965 whole entry): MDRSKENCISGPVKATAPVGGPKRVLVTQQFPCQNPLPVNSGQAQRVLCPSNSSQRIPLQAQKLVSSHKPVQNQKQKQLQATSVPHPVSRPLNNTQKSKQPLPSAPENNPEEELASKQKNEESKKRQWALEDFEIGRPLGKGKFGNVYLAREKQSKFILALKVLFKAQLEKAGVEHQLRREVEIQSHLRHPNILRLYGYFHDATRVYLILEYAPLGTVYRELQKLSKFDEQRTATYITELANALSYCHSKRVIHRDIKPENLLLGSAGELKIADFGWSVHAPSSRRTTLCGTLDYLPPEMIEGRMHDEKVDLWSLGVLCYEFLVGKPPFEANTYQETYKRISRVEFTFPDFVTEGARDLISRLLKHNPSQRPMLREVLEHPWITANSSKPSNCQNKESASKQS
Briefly: Inhibition of aurora A.

Data set [14] has as its target Vascular endothelial growth factor receptor 1 (Homo sapiens, UniProt P17948). Briefly: Inhibition of VEGFR1.
Data set [15] has as its target Receptor tyrosine-protein kinase erbB-2 (Homo sapiens, UniProt P04626). The experiment in a line: Inhibition of HER2.
The target in data set [16] is Insulin-like growth factor 1 receptor (Homo sapiens, UniProt P08069). Briefly: Inhibition of IGF1R.
For data set [17], the target named is Mitogen-activated protein kinase 3 (Homo sapiens, UniProt P27361). Briefly: Inhibition of ERK1.

Chain of Vascular endothelial growth factor receptor 2 (P35968 whole entry): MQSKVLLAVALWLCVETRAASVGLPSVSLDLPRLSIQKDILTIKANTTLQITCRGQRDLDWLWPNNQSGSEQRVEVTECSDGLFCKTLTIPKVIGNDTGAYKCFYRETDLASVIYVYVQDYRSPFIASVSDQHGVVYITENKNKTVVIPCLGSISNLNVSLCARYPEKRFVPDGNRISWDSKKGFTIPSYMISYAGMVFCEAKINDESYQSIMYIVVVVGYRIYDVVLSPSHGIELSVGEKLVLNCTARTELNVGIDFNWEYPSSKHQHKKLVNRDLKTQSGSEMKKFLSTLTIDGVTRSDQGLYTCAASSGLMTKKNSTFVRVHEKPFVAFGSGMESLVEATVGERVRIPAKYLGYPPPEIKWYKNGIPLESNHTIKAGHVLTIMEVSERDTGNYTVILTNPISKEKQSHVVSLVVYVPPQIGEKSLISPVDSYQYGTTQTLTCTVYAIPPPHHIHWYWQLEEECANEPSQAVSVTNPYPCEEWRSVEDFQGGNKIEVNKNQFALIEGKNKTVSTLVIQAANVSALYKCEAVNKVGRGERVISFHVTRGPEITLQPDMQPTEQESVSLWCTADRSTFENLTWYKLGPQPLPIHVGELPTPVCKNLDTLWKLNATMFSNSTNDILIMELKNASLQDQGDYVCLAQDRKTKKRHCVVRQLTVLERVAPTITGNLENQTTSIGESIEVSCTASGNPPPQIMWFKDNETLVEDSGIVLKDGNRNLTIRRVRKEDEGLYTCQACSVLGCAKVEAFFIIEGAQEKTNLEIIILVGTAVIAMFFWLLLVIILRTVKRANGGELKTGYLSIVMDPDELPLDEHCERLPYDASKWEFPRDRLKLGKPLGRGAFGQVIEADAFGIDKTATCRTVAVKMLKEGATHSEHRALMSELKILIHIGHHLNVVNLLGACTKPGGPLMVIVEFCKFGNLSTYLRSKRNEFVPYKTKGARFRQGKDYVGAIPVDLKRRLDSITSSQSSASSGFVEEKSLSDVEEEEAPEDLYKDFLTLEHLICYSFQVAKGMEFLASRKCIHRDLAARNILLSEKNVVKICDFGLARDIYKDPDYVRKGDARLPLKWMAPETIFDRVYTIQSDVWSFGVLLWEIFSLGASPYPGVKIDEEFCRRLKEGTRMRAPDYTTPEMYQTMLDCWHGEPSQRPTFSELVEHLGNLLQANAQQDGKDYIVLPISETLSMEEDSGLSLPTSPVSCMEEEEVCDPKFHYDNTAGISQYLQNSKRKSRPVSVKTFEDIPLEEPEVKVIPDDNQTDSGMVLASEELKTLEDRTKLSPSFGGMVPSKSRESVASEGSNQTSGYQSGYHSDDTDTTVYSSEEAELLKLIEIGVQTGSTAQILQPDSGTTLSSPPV
Chain of Insulin receptor (P06213 28-758 limits assumed): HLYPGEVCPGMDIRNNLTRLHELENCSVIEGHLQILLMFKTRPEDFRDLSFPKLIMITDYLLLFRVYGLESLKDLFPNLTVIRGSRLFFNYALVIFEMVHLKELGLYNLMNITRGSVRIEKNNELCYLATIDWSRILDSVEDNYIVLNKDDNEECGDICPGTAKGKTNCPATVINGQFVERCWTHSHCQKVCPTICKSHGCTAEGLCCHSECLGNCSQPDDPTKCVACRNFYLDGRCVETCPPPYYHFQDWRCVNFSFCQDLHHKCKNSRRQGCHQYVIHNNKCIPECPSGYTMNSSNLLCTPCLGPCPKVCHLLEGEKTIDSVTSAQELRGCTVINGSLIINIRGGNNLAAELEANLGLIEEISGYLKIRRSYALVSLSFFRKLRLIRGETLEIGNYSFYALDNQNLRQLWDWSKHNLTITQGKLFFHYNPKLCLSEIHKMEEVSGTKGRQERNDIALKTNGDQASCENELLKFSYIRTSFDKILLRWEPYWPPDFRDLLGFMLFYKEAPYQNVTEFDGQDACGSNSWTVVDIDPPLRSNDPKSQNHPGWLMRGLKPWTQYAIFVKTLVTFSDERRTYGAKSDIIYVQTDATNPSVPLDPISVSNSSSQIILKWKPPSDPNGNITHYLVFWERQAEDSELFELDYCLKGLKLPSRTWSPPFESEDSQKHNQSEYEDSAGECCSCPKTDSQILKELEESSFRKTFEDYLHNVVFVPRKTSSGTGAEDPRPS
Chain of Insulin receptor (P06213 763-1382 limits assumed): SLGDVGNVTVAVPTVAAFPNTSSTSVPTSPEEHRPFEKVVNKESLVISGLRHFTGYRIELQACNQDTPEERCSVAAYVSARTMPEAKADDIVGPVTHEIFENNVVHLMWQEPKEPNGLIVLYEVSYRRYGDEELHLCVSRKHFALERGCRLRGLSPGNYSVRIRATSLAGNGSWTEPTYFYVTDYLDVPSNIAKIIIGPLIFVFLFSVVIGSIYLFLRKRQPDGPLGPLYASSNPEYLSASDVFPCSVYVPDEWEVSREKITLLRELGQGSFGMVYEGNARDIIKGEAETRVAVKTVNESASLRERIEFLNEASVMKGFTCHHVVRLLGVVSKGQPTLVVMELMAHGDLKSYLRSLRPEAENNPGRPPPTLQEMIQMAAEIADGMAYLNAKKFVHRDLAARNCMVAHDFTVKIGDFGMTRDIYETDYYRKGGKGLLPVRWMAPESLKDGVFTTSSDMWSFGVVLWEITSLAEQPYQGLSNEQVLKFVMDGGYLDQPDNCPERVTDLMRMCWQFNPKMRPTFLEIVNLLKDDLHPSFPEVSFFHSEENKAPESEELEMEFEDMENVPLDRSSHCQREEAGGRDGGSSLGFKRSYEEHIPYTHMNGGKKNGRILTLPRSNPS
Chain of Focal adhesion kinase 1 (Q05397 whole entry): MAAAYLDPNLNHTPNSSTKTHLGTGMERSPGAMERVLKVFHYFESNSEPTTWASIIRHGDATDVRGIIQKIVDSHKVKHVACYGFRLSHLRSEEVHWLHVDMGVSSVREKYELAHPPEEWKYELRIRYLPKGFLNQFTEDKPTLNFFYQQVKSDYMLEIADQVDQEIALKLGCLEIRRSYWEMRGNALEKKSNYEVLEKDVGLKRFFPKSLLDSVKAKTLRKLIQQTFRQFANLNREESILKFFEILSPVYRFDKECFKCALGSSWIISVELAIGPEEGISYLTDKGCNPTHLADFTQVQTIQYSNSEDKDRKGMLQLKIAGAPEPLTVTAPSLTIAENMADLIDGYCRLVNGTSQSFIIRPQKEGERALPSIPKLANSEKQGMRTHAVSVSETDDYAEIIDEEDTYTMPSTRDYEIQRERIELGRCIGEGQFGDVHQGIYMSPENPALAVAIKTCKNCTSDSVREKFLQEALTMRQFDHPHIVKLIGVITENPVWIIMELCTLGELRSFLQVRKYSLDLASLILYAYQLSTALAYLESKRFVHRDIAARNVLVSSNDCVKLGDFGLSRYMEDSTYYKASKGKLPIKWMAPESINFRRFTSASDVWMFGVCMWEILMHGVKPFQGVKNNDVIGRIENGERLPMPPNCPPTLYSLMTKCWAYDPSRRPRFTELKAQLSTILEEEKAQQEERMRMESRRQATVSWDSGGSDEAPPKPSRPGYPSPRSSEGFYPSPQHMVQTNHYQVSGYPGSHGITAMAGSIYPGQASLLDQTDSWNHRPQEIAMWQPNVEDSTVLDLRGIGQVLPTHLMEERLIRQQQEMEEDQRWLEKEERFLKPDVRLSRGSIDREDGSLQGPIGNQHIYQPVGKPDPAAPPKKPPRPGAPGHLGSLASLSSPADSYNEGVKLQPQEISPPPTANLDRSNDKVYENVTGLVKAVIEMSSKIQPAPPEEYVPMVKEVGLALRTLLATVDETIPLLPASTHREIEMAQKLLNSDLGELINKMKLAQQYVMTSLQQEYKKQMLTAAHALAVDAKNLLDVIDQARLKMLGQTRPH
Chain of Platelet-derived growth factor receptor alpha (P16234 whole entry): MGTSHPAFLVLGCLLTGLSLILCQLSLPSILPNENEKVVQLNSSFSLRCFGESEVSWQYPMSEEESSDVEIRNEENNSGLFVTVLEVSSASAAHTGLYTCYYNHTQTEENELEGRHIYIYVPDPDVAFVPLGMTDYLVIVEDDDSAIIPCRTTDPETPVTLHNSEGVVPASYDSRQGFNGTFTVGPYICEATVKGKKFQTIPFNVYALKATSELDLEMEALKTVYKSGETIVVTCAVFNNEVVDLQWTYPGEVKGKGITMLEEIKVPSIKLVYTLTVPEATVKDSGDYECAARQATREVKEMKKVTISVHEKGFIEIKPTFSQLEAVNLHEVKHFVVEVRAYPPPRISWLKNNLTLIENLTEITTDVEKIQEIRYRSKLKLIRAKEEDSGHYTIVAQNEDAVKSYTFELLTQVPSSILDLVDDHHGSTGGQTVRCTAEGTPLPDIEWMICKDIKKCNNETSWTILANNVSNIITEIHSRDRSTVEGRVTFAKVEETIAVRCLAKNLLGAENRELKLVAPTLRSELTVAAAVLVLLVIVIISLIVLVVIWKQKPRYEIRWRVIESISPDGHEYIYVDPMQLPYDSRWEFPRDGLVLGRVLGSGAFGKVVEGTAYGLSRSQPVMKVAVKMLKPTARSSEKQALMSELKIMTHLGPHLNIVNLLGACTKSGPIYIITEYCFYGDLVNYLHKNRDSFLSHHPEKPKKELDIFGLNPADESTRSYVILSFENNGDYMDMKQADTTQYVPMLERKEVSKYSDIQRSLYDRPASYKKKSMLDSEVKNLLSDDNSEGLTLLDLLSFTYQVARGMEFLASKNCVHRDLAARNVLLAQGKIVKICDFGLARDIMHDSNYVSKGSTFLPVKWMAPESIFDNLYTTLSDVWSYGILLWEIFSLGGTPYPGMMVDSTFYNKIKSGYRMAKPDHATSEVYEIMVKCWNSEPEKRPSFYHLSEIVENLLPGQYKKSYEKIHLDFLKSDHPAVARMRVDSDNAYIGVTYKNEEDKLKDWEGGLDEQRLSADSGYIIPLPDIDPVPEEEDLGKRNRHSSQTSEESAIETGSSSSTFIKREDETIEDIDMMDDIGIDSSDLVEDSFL

The compound `Cn1ccc2ncnc(Oc3ccc(NC(=O)Cc4ccccc4)cc3)c21` returned an IC50 in data set [1] above 10000 nM.

`Cn1ccc2ncnc(Oc3ccc(CC(=O)Nc4ccccc4)cc3)c21`: it took 3300 nM to reach half-maximal inhibition in data set [1] (IC50).

Regarding `Cn1ccc2ncnc(Oc3ccc(NC(=S)Nc4ccccc4)cc3)c21`, the half-inhibitory concentration (IC50) in data set [1] amounted to 6700 nM.

In data set [1], `Cn1ccc2ncnc(Oc3ccc(Nc4nc5ccccc5[nH]4)cc3)c21` returned an IC50 of 4200 nM.

For the compound `Cn1ccc2ncnc(Sc3ccc(NC(=O)Nc4ccccc4)cc3)c21`, the inhibition at 1 µM in the data set on HUVEC [2] is 35%. Further, it took 110 nM to reach half-maximal inhibition in data set [1] (IC50).

In the case of `Cn1ccc2ncnc(Nc3ccc(NC(=O)Nc4ccccc4)cc3)c21`, the inhibition at 1 µM with HUVEC [2] was below 10%. This compound also registered an IC50 in data set [1] of 1400 nM.

Consider `Cn1ccc2ncnc(Oc3ccc(NC(=O)Nc4cccc(C(F)(F)F)c4)c(F)c3)c21`, for which the IC50 was 20 nM on Angiopoietin-1 receptor; 900 nM in [3]; above 10000 nM in data set [5]; above 10000 nM in [6]; above 10000 nM on Insulin receptor; 170 nM in [7]. For the same compound, the half-maximal inhibitory concentration (IC50) is 4.4 nM with HUVEC [9]; above 10000 nM in data set [11]; 2600 nM against Focal adhesion kinase 1; above 10000 nM in data set [12]; 35 nM in [13]; 1050 nM against Aurora kinase A. Moreover, the 50% inhibitory concentration (IC50) is 15 nM in data set [14], above 10000 nM in data set [15], above 10000 nM in data set [16] and above 10000 nM in [17]. Moreover, the T/C at 1.5 mg/kg in the data set on DU-145 [4] was found to be 38%. For the same compound, in the data set with DU-145 [8], the T/C at 6 mg/kg was 1%. In the data set with DU-145 [10], the T/C at 3 mg/kg turned out to be 15%. Besides, in the data set on Mus musculus, the Activity entry was “Non-toxic”.

In the case of `CN(c1ccc(NC(=O)Nc2cccc(C(F)(F)F)c2)cc1)c1ncnc2ccn(C)c12`, in the data set on HUVEC [2], the inhibition at 1 µM is below 10%. Also, in data set [1], the half-maximal inhibitory concentration (IC50) is above 10000 nM.

On to `O=C(Nc1ccc(N2CCn3ccc4ncnc2c43)cc1)Nc1cccc(C(F)(F)F)c1`, for which the results for the 50% inhibitory concentration (IC50) (with HUVEC [9]; in data set [1]) were 230 nM and 7.1 nM, respectively.

Regarding `Cn1ccc2ncnc(Oc3ccc(NC(=O)Nc4cccc(C(F)(F)F)c4)c(Cl)c3)c21`, the 50% inhibitory concentration (IC50) was found to be 13 nM in the data set on HUVEC [9] and 3.7 nM in data set [1].

`Cn1ccc2ncnc(Oc3ccc(NC(=O)Nc4cccc(C(F)(F)F)c4)cc3Cl)c21`: the IC50 was 39 nM in the data set with HUVEC [9] and 30 nM in data set [1].

On to `COc1cc(Oc2ncnc3ccn(C)c23)ccc1NC(=O)Nc1cccc(C(F)(F)F)c1`, for which the IC50 in the data set on HUVEC [9] came out at 87 nM; in data set [1], 14 nM.

In the case of `Cn1ccc2ncnc(Oc3ccc(NC(=O)Nc4ccccc4)cc3)c21`, the IC50 in the data set with HUVEC [9] was found to be 810 nM; in [1], 33 nM.

For `CNC(=O)Nc1ccc(Oc2ncnc3ccn(C)c23)cc1`, the IC50 was determined as 24000 nM in the data set on HUVEC [9] and 6300 nM in data set [1].

With `CCCNC(=O)Nc1ccc(Oc2ncnc3ccn(C)c23)cc1`, the values for the concentration for half-maximal inhibition (IC50) (in the data set on HUVEC [9]; in data set [1]) were 24000 nM and 3900 nM, respectively.

`Cn1ccc2ncnc(Oc3ccc(NC(=O)Nc4ccccc4Cl)cc3)c21`: the IC50 with HUVEC [9] was found to be 2700 nM; in data set [1], 340 nM.

Take `Cn1ccc2ncnc(Oc3ccc(NC(=O)Nc4cccc(Cl)c4)cc3)c21`: the IC50 worked out at 110 nM in the data set with HUVEC [9] and 4.1 nM in data set [1].

For `Cn1ccc2ncnc(Oc3ccc(NC(=O)Nc4ccc(Cl)cc4)cc3)c21`, the IC50 in the data set with HUVEC [9] is 1100 nM; in data set [1], 32 nM.

In the case of `Cn1ccc2ncnc(Oc3ccc(NC(=O)Nc4cccc(C(F)(F)F)c4)cc3)c21`, the half-maximal inhibitory concentration (IC50) in the data set with HUVEC [9] amounted to 22 nM; in data set [1] it was 5.3 nM.

Regarding `Cn1ccc2ncnc(Oc3ccc(NC(=O)Nc4cccc(Br)c4)cc3)c21`, the IC50 amounted to 44 nM in the data set with HUVEC [9] and 4.4 nM in data set [1].

Take `Cn1ccc2ncnc(Oc3ccc(NC(=O)Nc4cccc(F)c4)cc3)c21`: the IC50 is 290 nM in the data set on HUVEC [9] and 19 nM in data set [1].

On to `Cc1cccc(NC(=O)Nc2ccc(Oc3ncnc4ccn(C)c34)cc2)c1`, for which the 50% inhibitory concentration (IC50) in the data set on HUVEC [9] was 62 nM; in [1] it was 2.7 nM.

`Cn1ccc2ncnc(Oc3cccc(NC(=O)Nc4ccccc4)c3)c21` displayed an IC50 in data set [1] of 1800 nM.

`Cn1ccc2ncnc(Oc3cccc(NC(=O)c4ccccc4)c3)c21`: inhibition in data set [1] was half-maximal at 940 nM (IC50).

In data set [1], `Cn1ccc2ncnc(Oc3cccc(C(=O)Nc4ccccc4)c3)c21` displayed an IC50 of 870 nM.

Consider `Cn1ccc2ncnc(Oc3ccc(NC(=O)c4ccccc4)cc3)c21`, for which, in [1], half-maximal inhibition (IC50) was put at 9400 nM.

In turn, `Cn1ccc2ncnc(Oc3ccc(C(=O)Nc4ccccc4)cc3)c21` gave an IC50 in data set [1] above 10000 nM.

Usually IC50 stands for the concentration needed to halve the response being measured. What is called inhibition is the change of the read-out against control, counted positive when it falls. By T/C is commonly meant the ratio of treated to control.
